Earlier results, collected in US10258574B2, “Method of preparing itraconazole preparation” (CHANGZHOU PHARMACEUTICAL FACTORY CO., LTD., priority 2015, dated 2019).

Settings: rat; clinical relevance yet unclear

2-hydroxypropyl-β-cyclodextrin
carcinogenicity finding: cause pancreatic cancer
